The source of these data is patent publication US20200215082A1, “Dihydrotestosterone and Dihydrotestosterone Derivatives and Promoters in the Treatment of Cancer” (Tyme, Inc., priority 2016, published 2020).

The subject of the assay is cancerous tumor of the distal radius. In words: Treatment of a canine with a cancerous tumor of the distal radius (X-ray). The following applies: after stanozolol administration, FIG. 1 before, FIG. 2 after, dose and route not given. The assay is classed as in vivo. How it is done: FIG. 1 is an X-ray depicting a cancerous tumor on the distal radius of a canine.
FIG. 2 is an X-ray depicting calcification of the cancerous tumor shown in FIG. 1 after treatment according to a preferred aspect of the disclosure.
A canine presenting with a cancerous tumor of the distal radius (see FIG. 1) was administered stanozolol.

Regarding stanozolol, the “calcification of the cancerous tumor” value was “the cancerous tumor calcified”.
